Some test systems named below: NCI-H23; OVCAR-8; CCRF-CEM; SK-OV-3; SK-MEL-2; SK-MEL-5; Malme-3M; UACC-62; SW-620; SN12C; SNB-19; COLO 205; RXF 393; OVCAR-4; TK-10; HCC 2998.
Assay in all cases: growth of human tumour cells (NCI), 48 h

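96-well plates; 48 h exposure; 5 concentrations. Endpoints by linear interpolation between flanking doses. Not reached: highest tested concentration assigned. Abbreviation: GI50, concentration required for 50% inhibition of growth.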 Calls of active or inactive are those of the source. No stated cut-off is given here; in the data, active = GI50 up to about 1.1 µM and inactive = higher. Some results are limits rather than exact numbers.

Consider `CCOC(=O)C(=O)Nc1c(N(CC)CC)n2ccccc2nc1=O`, for which the GI50 in the test with NCI-H23, with OVCAR-8, with CCRF-CEM, with SK-OV-3, in the test on SK-MEL-2 and in the test with SK-MEL-5 was > 100 µM (inactive) each time. Moreover, the GI50 with Malme-3M, in the test on UACC-62, in the test on SW-620, in the test with SN12C, in the test with SNB-19 and in the test on COLO 205 was > 100 µM (inactive) throughout.

Take `CN(C)/C=N\c1cc[nH]c(=O)n1`: the GI50 with OVCAR-8, with CCRF-CEM, with SK-OV-3, in the test on SK-MEL-2, in the test with RXF 393 and with SK-MEL-5 was > 100 µM (inactive) throughout. Besides, the GI50 in the test on OVCAR-4, in the test on Malme-3M, in the test with UACC-62, in the test on SW-620, with SN12C and in the test on TK-10 was > 100 µM (inactive) throughout. For the same compound, the GI50 with COLO 205 was > 100 µM (inactive).

For `COC(=O)[C@]12CSCN1C(=O)C(C(C)=O)=NN2C(=O)[C@](OC)(c1ccccc1)C(F)(F)F`, the GI50 in the test with NCI-H23 was > 100 µM (inactive); in the test on OVCAR-8 it was > 100 µM (inactive); with CCRF-CEM it was > 10 µM (inactive); with SK-MEL-2, > 100 µM (inactive); with RXF 393, 90.6 µM (inactive); in the test with SK-MEL-5 it was > 100 µM (inactive). The GI50 in the test with OVCAR-4, in the test on Malme-3M, in the test on UACC-62, with SW-620, in the test on SN12C and in the test with SNB-19 was > 100 µM (inactive) in each case. For the same compound, the GI50 with TK-10 and with COLO 205 was > 100 µM (inactive) in each case.

Turning to `CCCCCCC1CCC2CCCC(C)N12` (stereo not drawn), the GI50 in the test with NCI-H23 was 34.4 µM (inactive); in the test with OVCAR-8, 45.6 µM (inactive); in the test with CCRF-CEM, 19 µM (inactive); in the test with SK-MEL-2 it was 28.2 µM (inactive); in the test on SK-MEL-5, 49.8 µM (inactive); with OVCAR-4 it was 46.2 µM (inactive). Further, the GI50 with Malme-3M is > 10 µM (inactive); in the test with UACC-62 it was > 100 µM (inactive); with SW-620 it was 14.8 µM (inactive); with HCC 2998, 22.6 µM (inactive); in the test on SN12C, 95.9 µM (inactive); with SNB-19 it was > 100 µM (inactive). Also, the GI50 in the test on TK-10 is 39.2 µM (inactive); in the test with COLO 205 it was 16 µM (inactive).

On to `CC[n+]1c(/C=C/c2cc(C(=O)OC)n3c2sc2ccccc23)sc2ccccc21`, for which the GI50 in the test with CCRF-CEM was 0.214 µM (active); in the test with SK-OV-3, 17.9 µM (inactive); in the test with SK-MEL-2 it was 18.7 µM (inactive); in the test with SK-MEL-5 it was 15 µM (inactive); in the test with OVCAR-4 it was 17.8 µM (inactive); with Malme-3M it was 16.7 µM (inactive). For the same compound, the GI50 is 0.394 µM (active) in the test on UACC-62, 14.6 µM (inactive) with HCC 2998, 23.1 µM (inactive) in the test with SN12C and 22.9 µM (inactive) with COLO 205.

On to `On1c(-c2ccccc2)c(-c2ccccc2N2CCCC2)c2ccccc21`, for which the GI50 in the test with NCI-H23, in the test on OVCAR-8, in the test with CCRF-CEM, with SK-OV-3, in the test on SK-MEL-2 and in the test with SK-MEL-5 was > 100 µM (inactive) each time. For the same compound, the GI50 with OVCAR-4, in the test with Malme-3M, with UACC-62, in the test on SW-620, in the test with HCC 2998 and in the test on SN12C was > 100 µM (inactive) throughout. Besides, the GI50 in the test on SNB-19, in the test with TK-10 and in the test with COLO 205 was > 100 µM (inactive) each time.

For the compound `CC(=O)OC(C)(C)C1CCC(C)(C(O)COc2ccc(CCNC(=O)c3ccccc3)cc2)O1` (stereo not drawn), the GI50 in the test with NCI-H23 is > 100 µM (inactive); with OVCAR-8 it was 47.5 µM (inactive); with CCRF-CEM it was 21.6 µM (inactive); in the test on SK-OV-3, > 100 µM (inactive); in the test on SK-MEL-2, > 100 µM (inactive); in the test with RXF 393, 6.68 µM (inactive). The GI50 in the test with SK-MEL-5 was 11.6 µM (inactive); in the test with OVCAR-4 it was 63.2 µM (inactive); with Malme-3M it was 63.5 µM (inactive); in the test with UACC-62, 30.8 µM (inactive); with SW-620 it was > 100 µM (inactive); with SN12C, > 100 µM (inactive). For the same compound, the GI50 is > 100 µM (inactive) with SNB-19, 63.8 µM (inactive) with TK-10 and > 100 µM (inactive) in the test on COLO 205.

On to `Cc1ccc(/N=N/C2S/C(=C(\C#N)c3nc4ccccc4[nH]3)N(c3ccccc3)C2=O)cc1` (stereo not drawn), for which the GI50 with NCI-H23 is 86.7 µM (inactive); with OVCAR-8, 56.1 µM (inactive); in the test on CCRF-CEM, > 100 µM (inactive); with SK-OV-3, > 100 µM (inactive); with SK-MEL-2, > 100 µM (inactive); in the test with RXF 393 it was 28.8 µM (inactive). In addition, the GI50 is > 100 µM (inactive) in the test on SK-MEL-5; 42.8 µM (inactive) with OVCAR-4; > 100 µM (inactive) in the test with Malme-3M; > 100 µM (inactive) in the test with UACC-62; > 100 µM (inactive) with SW-620; > 100 µM (inactive) in the test on SN12C. The GI50 in the test on SNB-19 was 99.1 µM (inactive); in the test on TK-10 it was 36.9 µM (inactive); with COLO 205, > 100 µM (inactive).

As for `COC(=O)/C(=C/c1ccc(OC)cc1)C(C(=O)O)=C1CCCCC1`, the GI50 in the test on NCI-H23, with OVCAR-8, with CCRF-CEM, with SK-OV-3, with SK-MEL-2 and with RXF 393 was > 100 µM (inactive) in each case. In addition, the GI50 in the test with SK-MEL-5, with OVCAR-4, in the test with UACC-62, with SW-620, with SN12C and in the test with SNB-19 was > 100 µM (inactive) in each case. Moreover, the GI50 with TK-10 and in the test with COLO 205 was > 100 µM (inactive) in each case.

Turning to `CC(=O)O[C@H]1C(=O)[C@@]2(C)C(C(OC(=O)c3ccccc3)[C@]3(O)CC(OC(=O)C(O)C(NC(=O)c4ccc(C)cc4)c4ccccc4)C(C)=C1C3(C)C)[C@]1(OC(C)=O)CO[C@@H]1C[C@@H]2O` (stereo partly drawn), the GI50 is 0.00785 µM (active) with NCI-H23; 0.00426 µM (active) with OVCAR-8; 0.00365 µM (active) in the test on CCRF-CEM; < 0.0025 µM (active) in the test with SK-OV-3; < 0.0025 µM (active) with SK-MEL-2; 0.00628 µM (active) with RXF 393. Further, the GI50 in the test with SK-MEL-5 was 0.00402 µM (active); with OVCAR-4, 3.2 µM (inactive); in the test with Malme-3M it was 0.0043 µM (active); in the test with UACC-62, 0.0199 µM (active); with SN12C, 0.0112 µM (active); in the test on SNB-19, 0.00771 µM (active). In addition, the GI50 with TK-10 was 0.0588 µM (active); with COLO 205, < 0.0025 µM (active).

Turning to `O=c1ccccc2cccc(O)c12`, the GI50 in the test with NCI-H23, with OVCAR-8, in the test with CCRF-CEM, with SK-OV-3, with RXF 393 and in the test with SK-MEL-5 was > 100 µM (inactive) throughout. The GI50 with OVCAR-4, with UACC-62, in the test with SW-620, in the test with HCC 2998, in the test with SN12C and with SNB-19 was > 100 µM (inactive) throughout. Further, the GI50 in the test on TK-10 and in the test with COLO 205 was > 100 µM (inactive) in each case.

In the case of `CN1C(c2ccccc2)CC(O)CC1c1ccccc1` (stereo not drawn), the GI50 in the test on NCI-H23, with OVCAR-8, with CCRF-CEM, in the test with SK-OV-3, with SK-MEL-2 and with RXF 393 was > 100 µM (inactive) in each case. In addition, the GI50 in the test with SK-MEL-5, with OVCAR-4, in the test with Malme-3M, with UACC-62, in the test on SW-620 and with SN12C was > 100 µM (inactive) in each case. Moreover, the GI50 in the test with SNB-19, in the test on TK-10 and with COLO 205 was > 100 µM (inactive) throughout.

In the case of `O=c1ccn([C@H]2CSC[C@@H](CO)C2)c(=O)[nH]1`, the GI50 in the test on NCI-H23, in the test with OVCAR-8, with CCRF-CEM, in the test with SK-OV-3, in the test with SK-MEL-2 and in the test on SK-MEL-5 was > 100 µM (inactive) each time. Further, the GI50 with OVCAR-4, in the test with Malme-3M, with UACC-62, with SW-620, with HCC 2998 and in the test with SN12C was > 100 µM (inactive) in each case. Moreover, the GI50 with SNB-19 and with TK-10 was > 100 µM (inactive) throughout.

For the compound `COc1ccc(OCC(=O)O)c2c1CCC(C)C2=O` (stereo not drawn), the GI50 in the test with OVCAR-8, in the test on CCRF-CEM, in the test on SK-OV-3, in the test with SK-MEL-2, in the test with SK-MEL-5 and in the test with OVCAR-4 was > 100 µM (inactive) each time. In addition, the GI50 in the test on Malme-3M, in the test with UACC-62, in the test with SW-620, with HCC 2998, in the test on SN12C and in the test on SNB-19 was > 100 µM (inactive) throughout. In addition, the GI50 in the test with TK-10 and in the test with COLO 205 was > 100 µM (inactive) throughout.

For the origin of these results see ChEMBL document CHEMBL1201862, “PubChem BioAssay data set” (2004).
